Active and inactive are the calls of the source. The rule behind the calls is not given here.
Experiments:
[1] = target: Proteinase-activated receptor 2 (Homo sapiens) (UniProt P55085); assay: Antagonist activity at protease-activated receptor 2 (unknown origin) expressed in CHO-K1 cells assessed as inhibition of trypsin-induced calcium flux at 10 uM by FLIPR assay; format: functional, cell-based
[2] = target: T1, Proteinase-activated receptor 2 (Homo sapiens, UniProt P55085); assay: Antagonist activity at protease-activated receptor 2 (unknown origin) expressed in CHO-K1 cells assessed as inhibition of trypsin-induced calcium flux by FLIPR assay; format: functional, cell-based
T1 sequence (P55085 whole entry): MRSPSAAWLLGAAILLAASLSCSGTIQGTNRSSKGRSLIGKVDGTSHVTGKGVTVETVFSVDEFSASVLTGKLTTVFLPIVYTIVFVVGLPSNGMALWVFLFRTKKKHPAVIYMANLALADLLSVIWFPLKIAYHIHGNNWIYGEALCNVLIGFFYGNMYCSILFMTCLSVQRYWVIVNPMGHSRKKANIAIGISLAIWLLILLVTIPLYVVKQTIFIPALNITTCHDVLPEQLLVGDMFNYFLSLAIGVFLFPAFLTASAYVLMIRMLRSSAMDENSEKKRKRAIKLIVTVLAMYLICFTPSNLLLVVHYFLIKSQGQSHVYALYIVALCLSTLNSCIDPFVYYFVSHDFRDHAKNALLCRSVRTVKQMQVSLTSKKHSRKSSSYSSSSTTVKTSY

[3] = system: Mus musculus; assay: Antiinflammatory activity in C57BL/6 mouse assessed as reduction of LPS-induced sepsis at 7.5 mg/kg, po administered 1 hr before LPS challenge measured up to 60 hrs; format: functional; parameters: scale not given: the % may be the effect or the level left
[4] = system: RAW264.7; assay: Antiinflammatory activity in mouse RAW264.7 cells assessed as inhibition of LPS-induced iNOS mRNA level compound pretreated for 1 hr followed by stimulation with LPS for 24 hrs by qRT-PCR analysis; format: functional, cell-based
[5] = system: Mus musculus; assay: Antiinflammatory activity in C57BL/6 mouse assessed as reduction of LPS-induced sepsis at 30 mg/kg, po administered 1 hr before LPS challenge measured up to 60 hrs; format: functional; parameters: scale not given: the % may be the effect or the level left
[6] = system: RAW264.7; assay: Antiinflammatory activity in mouse RAW264.7 cells assessed as inhibition of LPS-induced IL-1beta expression compound pretreated for 1 hr followed by stimulation with LPS for 24 hrs by EIA; format: functional, cell-based
[7] = target: T2, Proteinase-activated receptor 2 (Mus musculus) (UniProt P55086); assay: Antagonist activity at protease-activated receptor 2 in LPS-stimulated mouse RAW264.7 cells assessed as inhibition of NF-kappaB activation compound pretreated for 1 hr followed by stimulation with LPS for 8 hrs by luciferase reporter gene assay; format: cell-based
T2 sequence (whole entry): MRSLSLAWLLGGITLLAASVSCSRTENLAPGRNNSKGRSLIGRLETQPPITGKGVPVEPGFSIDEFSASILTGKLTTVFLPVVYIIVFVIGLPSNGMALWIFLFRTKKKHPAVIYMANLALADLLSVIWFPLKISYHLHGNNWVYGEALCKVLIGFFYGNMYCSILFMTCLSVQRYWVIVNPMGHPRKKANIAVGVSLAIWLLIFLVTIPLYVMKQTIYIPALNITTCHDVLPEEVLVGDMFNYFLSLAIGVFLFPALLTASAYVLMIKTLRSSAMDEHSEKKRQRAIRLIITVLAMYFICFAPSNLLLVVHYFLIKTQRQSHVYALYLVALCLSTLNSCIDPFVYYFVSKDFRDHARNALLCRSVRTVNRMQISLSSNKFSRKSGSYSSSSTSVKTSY

[8] = system: RAW264.7; assay: Antiinflammatory activity in mouse RAW264.7 cells assessed as inhibition of LPS-induced iNOS expression compound pretreated for 1 hr followed by stimulation with LPS for 24 hrs by Western blot analysis; format: functional, cell-based
[9] = system: RAW264.7; assay: Cytotoxicity against mouse RAW264.7 cells assessed as cell viability at 3.125 to 200 uM after 24 hrs by MTT assay; format: cell-based; conditions: raw264.7, 24 h
[10] = target: Proteinase-activated receptor 2 (Homo sapiens) (UniProt P55085); assay: Antagonist activity at trypsin-induced protease-activated receptor 2 activation (unknown origin) expressed in CHO-K1 cells assessed as receptor internalization at 30 uM after 1 hr by immuno-fluorescence assay (reference value: 28%); format: cell-based; parameters: scale not given: the % may be the effect or the level left
[11] = system: RAW264.7; assay: Inhibition of LPS-induced JNK phosphorylation in mouse RAW264.7 cells at 5 to 50 uM for 1 hr followed by stimulation with LPS for 5,10 or 15 mins by western blot analysis; format: cell-based
[12] = system: RAW264.7; assay: Antiinflammatory activity in mouse RAW264.7 cells assessed as inhibition of LPS-induced TNFalpha expression compound pretreated for 1 hr followed by stimulation with LPS for 24 hrs by EIA; format: functional, cell-based
[13] = system: RAW264.7; assay: Antiinflammatory activity in mouse RAW264.7 cells assessed as inhibition of LPS-induced PGE2 production at 5 to 50 uM for 1 hr followed by stimulation with LPS for 24 hrs […]; format: functional, cell-based
[14] = target: MAP kinase p38 (Mus musculus) (UniProt P47811+O08911+Q9WUI1+Q9Z1B7); assay: Inhibition of LPS-induced p38 phosphorylation in mouse RAW264.7 cells at 5 to 50 uM for 1 hr followed by stimulation with LPS for 5,10 or 15 mins by western blot analysis; format: cell-based
[15] = system: RAW264.7; assay: Antiinflammatory activity in mouse RAW264.7 cells assessed as inhibition of LPS-induced COX2 expression at 5 to 50 uM for 1 hr followed by stimulation with LPS for 24 hrs by Western blot analysis; format: functional, cell-based
[16] = system: Mus musculus; assay: Antiinflammatory activity in C57BL/6 mouse assessed as reduction of LPS-induced sepsis at 15 mg/kg, po administered 1 hr before LPS challenge measured up to 60 hrs; format: functional; parameters: scale not given: the % may be the effect or the level left
[17] = target: T2, Proteinase-activated receptor 2 (Mus musculus); assay: Antagonist activity at protease-activated receptor 2 in LPS-stimulated mouse RAW264.7 cells assessed as inhibition of AP-1 activation compound pretreated for 1 hr followed by stimulation with LPS for 8 hrs by luciferase reporter gene assay; format: cell-based
[18] = system: RAW264.7; assay: Antiinflammatory activity in mouse RAW264.7 cells assessed as inhibition of LPS-induced NO production at 5 to 50 uM for 1 hr followed by stimulation with LPS for 24 hrs by Griess reaction; format: functional, cell-based
[19] = system: RAW264.7; assay: Inhibition of LPS-induced Erk phosphorylation in mouse RAW264.7 cells at 5 to 50 uM for 1 hr followed by stimulation with LPS for 5,10 or 15 mins by western blot analysis; format: cell-based
[20] = system: RAW264.7; assay: Antiinflammatory activity in mouse RAW264.7 cells assessed as inhibition of LPS-induced IL-6 expression compound pretreated for 1 hr followed by stimulation with LPS for 24 hrs by EIA; format: functional, cell-based
[21] = system: RAW264.7; assay: Antiinflammatory activity in mouse RAW264.7 cells assessed as inhibition of LPS-induced COX2 mRNA expression at 5 to 50 uM for 1 hr followed by stimulation with LPS for 4 hrs QT-PCR analysis; format: functional, cell-based
[22] = target: T1, Proteinase-activated receptor 2; assay: Displacement of [3H]furoyl-LIGRL-NH2 from human protease-activated receptor 2 in NCTC-2544 cells; format: cell-based
[23] = target: T1, Proteinase-activated receptor 2; assay: Antagonist activity at protease-activated receptor 2 (unknown origin)
[24] = system: RAW264.7; assay: Antiinflammatory activity in mouse RAW264.7 cells assessed as inhibition of LPS-induced PGE2 production at 3 uM for 1 hr followed by stimulation with LPS for 24 hrs […]; format: functional, cell-based

Clc1ccc(COc2nc(NCc3ccco3)c3ccccc3n2)c(Cl)c1
inhibition [1]: 16.5%

COc1ccc2nc(Oc3ccc(Cl)c(Cl)c3)nc(NCc3ccco3)c2c1
inhibition [1]: inactive

COc1ccc2nc(Oc3ccc(Cl)cc3Cl)nc(NCc3occc3C)c2c1
inhibition [1]: 33.1% | IC50 [2]: > 10000 nM

Cc1ccoc1CNc1nc(Oc2cccc(Cl)c2)nc2ccccc12
inhibition [1]: inactive

Cc1ccoc1CNc1nc(Oc2cc(Cl)cc(Cl)c2)nc2ccc(F)cc12
inhibition [1]: 47.7% | Activity [3]: 80% | inhibition [4]: Dose-dependent effect | Activity [5]: 20% | inhibition [6]: Dose-dependent effect | inhibition [7]: Dose-dependent effect | inhibition [8]: Dose-dependent effect | Activity [9]: Non-toxic | Activity [10]: 12% | inhibition [11]: inactive | inhibition [12]: Dose-dependent effect | inhibition [13]: Active | inhibition [14]: inactive | inhibition [15]: Active | Activity [16]: 60% | inhibition [17]: Dose-dependent effect | inhibition [18]: Active | IC50 [2]: 2800 nM | inhibition [19]: Active | inhibition [20]: Dose-dependent effect | inhibition [21]: Active

NCCCC[C@H](NC(=O)CNC(=O)Nc1ccc2c(c1)c(CN1CCCC1)cn2Cc1c(Cl)cccc1Cl)C(=O)N[C@H](Cc1ccccc1)C(=O)NC(c1ccccc1)c1ccccc1
Ki [22]: 627 nM

Cc1ccoc1CNc1nc(Oc2ccc(Cl)c(Cl)c2)nc2ccc(F)cc12
inhibition [1]: < 10%

COc1ccc2nc(Oc3cc(Cl)cc(Cl)c3)nc(NCc3ccco3)c2c1
inhibition [1]: inactive

Cc1ccc(CNc2nc(Oc3cc(Cl)cc(Cl)c3)nc3ccc(F)cc23)o1
inhibition [1]: < 10% | Activity [10]: 24%

NCC[C@H](NC(=O)CNC(=O)Nc1ccc2c(c1)c(CN1CCCC1)cn2Cc1c(Cl)cccc1Cl)C(=O)N[C@H](Cc1ccccc1)C(=O)Nc1ccccc1
Ki [22]: 1940 nM

COc1ccc(Oc2nc(NCc3occc3C)c3ccccc3n2)cc1
inhibition [1]: 23.1%

Cc1ccoc1CNc1nc(Oc2ccc(Cl)cc2Cl)nc2ccccc12
inhibition [1]: inactive

Clc1ccc(Oc2nc(NCc3ccco3)c3cc(Cl)ccc3n2)c(Cl)c1
inhibition [1]: < 10%

Cc1ccc(CNc2nc(Oc3ccc(Cl)cc3Cl)nc3ccc(Cl)cc23)o1
inhibition [1]: inactive

Clc1cc(Cl)cc(COc2nc(NCc3ccco3)c3ccccc3n2)c1
inhibition [1]: inactive

CC[C@H](C)[C@H](NC(=O)[C@H](CC1CCCCC1)NC(=O)c1ccno1)C(=O)N1CCC2(C=Cc3ccccc32)CC1
IC50 [23]: 2000 nM

Clc1ccc(Oc2nc(NCc3ccco3)c3ccccc3n2)cc1Cl
inhibition [1]: inactive

CS(=O)(=O)Nc1ccc([N+](=O)[O-])cc1OC1CCCCC1
inhibition [24]: Active

COc1ccc2nc(Oc3cccc(Cl)c3)nc(NCc3ccco3)c2c1
inhibition [1]: inactive

CCCCCNc1nc(NCc2ccco2)c2cc(F)ccc2n1
inhibition [1]: 73.2% | IC50 [2]: 690 nM

Cc1ccc(CNc2nc(Oc3ccc(Cl)c(Cl)c3)nc3ccc(F)cc23)o1
inhibition [1]: inactive
